Measurements as given in patent publication US4400387A, “Indolizine derivatives and uses in therapeutics” (S. A. Labaz-Sanofi N.V., priority 1979, dated 1983).

Key:
[1] = molecular target: T1, adenosine deaminase obtained from calf intestine (Bos taurus, UniProt P56658); experiment: Inhibition of the action of adenosine deaminase in vitro (decrease in absorbance at 265 nm); format: biochemical; settings: pH 7.4, 30° C.
T1 construct: purchased
T1 sequence (P56658 1-363): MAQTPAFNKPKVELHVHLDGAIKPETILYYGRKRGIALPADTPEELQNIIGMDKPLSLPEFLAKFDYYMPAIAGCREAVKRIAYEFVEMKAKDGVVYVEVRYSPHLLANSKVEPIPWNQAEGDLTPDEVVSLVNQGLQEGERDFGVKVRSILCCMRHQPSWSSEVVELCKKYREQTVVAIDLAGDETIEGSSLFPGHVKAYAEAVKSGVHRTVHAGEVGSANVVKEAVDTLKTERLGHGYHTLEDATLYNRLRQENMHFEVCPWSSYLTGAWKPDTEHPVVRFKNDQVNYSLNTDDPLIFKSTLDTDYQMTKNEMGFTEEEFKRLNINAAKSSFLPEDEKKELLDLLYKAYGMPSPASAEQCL
Procedure: This test was performed with adenosine deaminase obtained from calf intestine.
(§1) The experimental procedure described hereunder was used:
In the absorption cell the following solutions were introduced:
2.7 ml of a 0.1 molar phosphate buffer solution (pH=7.4)
0.3 ml of a 10^-4 or 5.10^-4 molar solution of adenosine in the phosphate buffer solution (final concentration in adenosine: 10^-5 or 5.10^-5 mol) 0.01 ml of a 3.10^-3 molar ethanolic solution of the compound to be studied (about 10 milliunits)
The contents of the absorption cell were allowed to incubate for 2 minutes and then the enzymatic reaction was started by adding 0.03 ml of a commercial adenosine deaminase solution having a known concentration in enzyme. The reaction was performed at 30° C. and followed by spectrophotometric recording of the decrease in absorbance at 265 nm due to the transformation of adenosine into inosine by means of adenosine deaminase. This enzymatic reaction can be represented by the following equation: [formula]
The same measurements were performed with a control solution containing all the ingredients referred to above except the compound being studied. Curves were then plotted representing the decrease in absorbance in comparison with time obtained on the one hand with the solution containing the inhibitor and on the other with the control solution.
The slope of both curves was measured and expressed in the number of mols of inosine formed in one minute. After that, the percent of inhibition of the activity of adenosine deaminase provoked by a compound of the invention was calculated.

[2] = molecular target: T2, xanthine oxidase found in milk (Bos taurus, UniProt P80457); experiment: Inhibition of the action of xanthine oxidase in vitro (U.V. spectrophotometry, formation of uric acid from hypoxanthine); format: biochemical; settings: compound at 10^-5 M; hypoxanthine substrate, pH 7.4, 37° C.
T2 construct: purchased
Procedure: This trial was performed with xanthine oxidase found in milk. The activity of the enzymatic preparation was measured by following the formation of uric acid starting from hypoxanthine in the presence of oxygen and of a phosphate buffer solution.
as §1
In the absorption cell, the following solutions were introduced:
1.5 ml of a 0.1 molar phosphate buffer solution (pH=7.4) saturated with oxygen.
0.3 ml of a 1 m molar solution of ethylene diamine tetraacetate.
0.01 ml of a commercial xanthine oxidase solution having a known concentration in enzyme.
0.01 ml of a 3.10^-3 molar ethanolic solution of the compound to be tested.
The contents of the absorption cell were allowed to incubate for 2 minutes and then the enzymatic reaction was started by adding 0.3 ml of a 10^-3 molar solution of hypoxanthine to the absorption cell. The reaction was followed by spectrophotometric recording of the oxidation rate of hypoxanthine at 293 nm and at 37° C. The optical density was automatically registered. The same measurements were performed with a control solution containing all the ingredients referred to above except the compound being tested.
In this way, a curve representing the variation in optical density in comparison with time was obtained with the solution containing the inhibitor on the one hand and devoid of inhibitor on the other. The slope of both curves was measured and expressed in the number of mols of uric acid formed in one minute. Thus, it was possible to compare the values obtained and calculate, in percent, the inhibition of the activity of xanthine oxidase provoked by a compound of the invention.

T2 sequence (P80457 whole entry): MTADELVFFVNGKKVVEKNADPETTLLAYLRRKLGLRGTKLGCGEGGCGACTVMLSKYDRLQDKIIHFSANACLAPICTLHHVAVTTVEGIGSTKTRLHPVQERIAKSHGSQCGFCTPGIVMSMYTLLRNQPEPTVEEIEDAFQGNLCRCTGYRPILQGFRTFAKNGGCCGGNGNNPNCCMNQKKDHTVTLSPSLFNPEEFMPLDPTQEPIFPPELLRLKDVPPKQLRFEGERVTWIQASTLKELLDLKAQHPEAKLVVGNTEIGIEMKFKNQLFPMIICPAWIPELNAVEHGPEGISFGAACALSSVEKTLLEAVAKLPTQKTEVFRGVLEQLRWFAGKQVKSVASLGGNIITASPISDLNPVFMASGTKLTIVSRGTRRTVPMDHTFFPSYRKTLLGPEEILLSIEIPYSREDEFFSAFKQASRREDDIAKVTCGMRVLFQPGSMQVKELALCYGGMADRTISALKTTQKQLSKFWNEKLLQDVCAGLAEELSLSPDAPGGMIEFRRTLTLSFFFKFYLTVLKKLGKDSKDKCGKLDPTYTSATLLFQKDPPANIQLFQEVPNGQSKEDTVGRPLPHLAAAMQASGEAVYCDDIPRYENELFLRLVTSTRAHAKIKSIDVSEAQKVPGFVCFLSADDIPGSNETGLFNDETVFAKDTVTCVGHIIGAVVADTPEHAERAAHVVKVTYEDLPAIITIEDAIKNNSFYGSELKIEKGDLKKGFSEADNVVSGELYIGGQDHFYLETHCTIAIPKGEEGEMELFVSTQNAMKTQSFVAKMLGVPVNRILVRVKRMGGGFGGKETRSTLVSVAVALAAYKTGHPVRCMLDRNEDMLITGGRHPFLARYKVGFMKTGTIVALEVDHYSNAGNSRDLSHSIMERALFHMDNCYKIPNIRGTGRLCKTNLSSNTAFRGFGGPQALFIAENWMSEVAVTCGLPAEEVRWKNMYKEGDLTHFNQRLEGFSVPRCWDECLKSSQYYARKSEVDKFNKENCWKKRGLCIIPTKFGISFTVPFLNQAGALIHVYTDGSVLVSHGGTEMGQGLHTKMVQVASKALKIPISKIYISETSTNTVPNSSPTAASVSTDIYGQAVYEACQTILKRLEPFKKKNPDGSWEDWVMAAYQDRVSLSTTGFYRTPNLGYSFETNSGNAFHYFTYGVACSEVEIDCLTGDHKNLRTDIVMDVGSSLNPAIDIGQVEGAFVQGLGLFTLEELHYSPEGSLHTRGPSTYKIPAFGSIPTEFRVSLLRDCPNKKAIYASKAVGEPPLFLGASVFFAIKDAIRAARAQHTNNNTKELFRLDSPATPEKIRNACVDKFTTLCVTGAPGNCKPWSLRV

CCc1oc2ccccc2c1C(=O)c1cc(Br)c(O)c(Br)c1 [2-ethyl-3-(3,5-dibromo-4-hydroxy-benzoyl)-benzofuran, reference compound]
Inhibition of the action of adenosine deaminase in vitro (in %) At 10^-5 M adenosine [1]: totally inactive

CCc1oc2ccccc2c1C(=O)c1cc(I)c(O)c(I)c1 [2-ethyl-3-(3,5-diiodo-4-hydroxy-benzoyl)-benzofuran, reference compound]
Inhibition of the action of adenosine deaminase in vitro (in %) At 10^-5 M adenosine [1]: totally inactive

CCc1oc2ccccc2c1C(=O)c1ccc(O)cc1 [2-ethyl-3-(4-hydroxy-benzoyl)-benzofuran, reference compound]
Inhibition of the action of adenosine deaminase in vitro (in %) At 10^-5 M adenosine [1]: 18%

CC(C)c1oc2ccccc2c1C(=O)c1cc(Br)c(O)c(Br)c1 [2-isopropyl-3-(3,5-dibromo-4-hydroxy-benzoyl)-benzofuran, reference compound]
Inhibition of the action of adenosine deaminase in vitro (in %) At 10^-5 M adenosine [1]: totally inactive

CCCCc1oc2ccccc2c1C(=O)c1cc(Br)c(O)c(Br)c1 [2-n-butyl-3-(3,5-dibromo-4-hydroxy-benzoyl)-benzofuran, reference compound]
Inhibition of the action of adenosine deaminase in vitro (in %) At 10^-5 M adenosine [1]: totally inactive

O=C(c1cc(Br)c(O)c(Br)c1)c1c(-c2ccccc2)oc2ccccc12 [2-phenyl-3-(3,5-dibromo-4-hydroxy-benzoyl)-benzofuran, reference compound]
Inhibition of the action of adenosine deaminase in vitro (in %) At 10^-5 M adenosine [1]: 15%

O=C(c1ccc(O)cc1)c1c(-c2cccc(Br)c2)c(Cl)c2ccccn12 [3-Bromo-phenyl Cl H H, 1-Chloro-2-(3-bromo-phenyl)-3-(4-hydroxy-benzoyl)indolizine]
Inhibition of the action of adenosine deaminase in vitro (in %) At 5.10^-5 M adenosine [1]: 55%

O=C(c1ccc(O)c(Cl)c1)c1c(-c2cccc(Br)c2)cc2ccccn12 [3-Bromo-phenyl H H Cl, 2-(3-Bromo-phenyl)-3-(3-chloro-4-hydroxy-benzoyl)-indolizine]
inhibition at 10 µM [2]: 23%

O=C(c1cc(Br)c(O)c(Br)c1)c1c(-c2ccc(Br)cc2)cc2ccccn12 [4-Bromo-phenyl H Br Br, 2-(4-Bromo-phenyl)-3-(3,5-dibromo-4-hydroxy-benzoyl)-indolizine]
inhibition at 10 µM [2]: 23%

O=C(c1ccc(O)c(Br)c1)c1c(-c2ccc(Br)cc2)cc2ccccn12 [4-Bromo-phenyl H H Br, 2-(4-Bromo-phenyl)-3-(3-bromo-4-hydroxy-benzoyl)-indolizine]
inhibition at 10 µM [2]: 22%

O=C(c1ccc(O)c(Br)c1)c1c(-c2ccc(F)cc2)cc2ccccn12 [4-Fluoro-phenyl H H Br, 2-(4-Fluoro-phenyl)-3-(3-bromo-4-hydroxy-benzoyl)-indolizine]
Inhibition of the action of adenosine deaminase in vitro (in %) At 10^-5 M adenosine [1]: 60%

COc1cc(C(=O)c2c(-c3ccc(F)cc3)cc3ccccn23)ccc1O [4-Fluoro-phenyl H H OCH3, 2-(4-Fluoro-phenyl)-3-(3-methoxy-4-hydroxy-benzoyl)-indolizine]
Inhibition of the action of adenosine deaminase in vitro (in %) At 5.10^-5 M adenosine [1]: 39%

COc1ccc(-c2c(Br)c3ccccn3c2C(=O)c2ccc(O)c(Br)c2)cc1 [4-Methoxy-phenyl Br Br H, 1-Bromo-2-(4-methoxy-phenyl)-3-(3-bromo-4-hydroxy-benzoyl)-indolizine]
inhibition at 10 µM [2]: 80%

Cc1ccc(-c2c(Br)c3ccccn3c2C(=O)c2ccc(O)cc2)cc1 [4-Methyl-phenyl Br H H, 1-Bromo-2-(4-methyl-phenyl)-3-(4-hydroxy-benzoyl)-indolizine]
inhibition at 10 µM [2]: 48%

CCc1c(Br)c2ccccn2c1C(=O)c1ccc(O)c(Br)c1 [Ethyl Br Br H, 1-Bromo-2-ethyl-3-(3-bromo-4-hydroxy-benzoyl)-indolizine]
inhibition at 10 µM [2]: 93%

CCc1c(Cl)c2ccccn2c1C(=O)c1cc(Br)c(O)c(Br)c1 [Ethyl Cl Br Br, 1-Chloro-2-ethyl-3-(3,5-dibromo-4-hydroxy-benzoyl)-indolizine]
inhibition at 10 µM [2]: 64%

CCc1c(Cl)c2ccccn2c1C(=O)c1ccc(O)c(Br)c1 [Ethyl Cl Br H, 1-Chloro-2-ethyl-3-(3-bromo-4-hydroxy-benzoyl)-indolizine]
inhibition at 10 µM [2]: 34%

CCc1cc2ccccn2c1C(=O)c1cc(Cl)c(O)c(Cl)c1 [Ethyl H Cl Cl, 2-Ethyl-3-(3,5-dichloro-4-hydroxy-benzoyl)-indolizine]
inhibition at 10 µM [2]: 98%

CC(C)c1c(Br)c2ccccn2c1C(=O)c1cc(Br)c(O)c(Br)c1 [Isopropyl Br Br Br, 1-Bromo-2-isopropyl-3-(3,5-dibromo-4-hydroxy-benzoyl)-indolizine]
Inhibition of the action of adenosine deaminase in vitro (in %) At 10^-5 M adenosine [1]: 57%

CC(C)c1c(Br)c2ccccn2c1C(=O)c1ccc(O)c(Br)c1 [Isopropyl Br Br H, 1-Bromo-2-isopropyl-3-(3-bromo-4-hydroxy-benzoyl)-indolizine]
Inhibition of the action of adenosine deaminase in vitro (in %) At 5.10^-5 M adenosine [1]: 54% | Inhibition of the action of adenosine deaminase in vitro (in %) At 10^-5 M adenosine [1]: 75%

O=C(c1ccc(O)c(Cl)c1)c1c(-c2ccccc2)c(Br)c2ccccn12 [Phenyl Br Cl H, 1-Bromo-2-phenyl-3-(3-chloro-4-hydroxy-benzoyl)-indolizine]
Inhibition of the action of adenosine deaminase in vitro (in %) At 5.10^-5 M adenosine [1]: 86%

O=C(c1ccc(O)cc1)c1c(-c2ccccc2)c(Br)c2ccccn12 [Phenyl Br H H, 1-Bromo-2-phenyl-3-(4-hydroxy-benzoyl)-indolizine]
Inhibition of the action of adenosine deaminase in vitro (in %) At 5.10^-5 M adenosine [1]: 52%

O=C(c1cc(Cl)c(O)c(Cl)c1)c1c(-c2ccccc2)c(Cl)c2ccccn12 [Phenyl Cl Cl Cl, 1-Chloro-2-phenyl-3-(3,5-dichloro-4-hydroxy-benzoyl)-indolizine]
Inhibition of the action of adenosine deaminase in vitro (in %) At 5.10^-5 M adenosine [1]: 57%

O=C(c1ccc(O)c(Br)c1)c1c(-c2ccccc2)cc2ccccn12 [Phenyl H H Br, 2-Phenyl-3-(3-bromo-4-hydroxy-benzoyl)-indolizine]
Inhibition of the action of adenosine deaminase in vitro (in %) At 10^-5 M adenosine [1]: 78%

O=C(c1ccc(O)c(Cl)c1)c1c(-c2ccccc2)cc2ccccn12 [Phenyl H H Cl, 2-Phenyl-3-(3-chloro-4-hydroxy-benzoyl)-indolizine]
Inhibition of the action of adenosine deaminase in vitro (in %) At 10^-5 M adenosine [1]: 58%

COc1c(-c2ccccc2)c(C(=O)c2ccc(O)c(Br)c2)n2ccccc12 [Phenyl OCH3 Br H, 1-Methoxy-2-phenyl-3-(3-bromo-4-hydroxy-benzoyl)-indolizine]
Inhibition of the action of adenosine deaminase in vitro (in %) At 5.10^-5 M adenosine [1]: 91%

COc1c(-c2ccccc2)c(C(=O)c2ccc(O)c(Cl)c2)n2ccccc12 [Phenyl OCH3 Cl H, 1-Methoxy-2-phenyl-3-(3-chloro-4-hydroxy-benzoyl)-indolizine]
Inhibition of the action of adenosine deaminase in vitro (in %) At 5.10^-5 M adenosine [1]: 82%

CCCCc1c(Br)c2ccccn2c1C(=O)c1ccc(O)cc1 [n-Butyl Br H H, 1-Bromo-2-n-butyl-3-(4-hydroxy-benzoyl)-indolizine]
Inhibition of the action of adenosine deaminase in vitro (in %) At 10^-5 M adenosine [1]: 45%

CCCCc1cc2ccccn2c1C(=O)c1ccc(O)c(Br)c1 [n-Butyl H H Br, 2-n-Butyl-3-(3-bromo-4-hydroxy-benzoyl)-indolizine]
Inhibition of the action of adenosine deaminase in vitro (in %) At 10^-5 M adenosine [1]: 60%

CCCc1cc2ccccn2c1C(=O)c1ccc(O)c(Cl)c1 [n-Propyl H H Cl, 2-n-Propyl-3-(3-chloro-4-hydroxy-benzoyl)-indolizine]
Inhibition of the action of adenosine deaminase in vitro (in %) At 10^-5 M adenosine [1]: 42%
